Laboratory results: patent US11918770B2, “Implants for localized drug delivery and methods of use thereof” (The Regents of the University of California, priority 2014, dated 2024)
“Also recorded” adds a separate entry of the source. Each block holds one compound with its values, some of them ahead of it.

How the values were obtained:
[1] = Drug release from loaded Silastic tubing in culture media (LC-MS/MS); format: physicochemical; settings: for drug transfer from Silastic tubing: Silastic tubing depot approach
Experimental: (§1) Each sealed (10 cm) tube was immersed into a 10 cm culture tube containing 5 mL culture media (Dulbecco's Modified Eagle's medium (DMEM)+10% fetal bovine serum (FBS)+penicillin and streptomycin) approximating interstitial tissue surrounding the breast tissue. These tubes were set on a rocker in an incubator at 37° C. for 1, 2, 5, 10, 15, 21 and 30 days. After each time point media was collected and stored at −80° C. for further analysis for western blotting, viability/proliferation assay by MTS (3-(4,5-dimethylthiazol-2-yl)-5-(3-carboxymethoxyphenyl)-2-(4-sulfophenyl)-2H-tetrazolium) and quantitation by liquid chromatography-tandem mass spectrometry (LC-MS/MS). Additional iteration was to perform repeated washes on the same sealed tube and collect the culture medium at days 1, 2, 5, 10, 15, 21, and 30.
(§2) A validated LC-MS/MS method was used for quantitation of fulvestrant. Sample was prepared by liquid-liquid extraction procedures with n-hexane-isopropanol (90:10, v/v). Extracts were concentrated (using a nitrogen stream at room temperature) and […] with 2 volumes of mobile phase buffer, and injected into a Sciex ultra performance liquid chromatorgraphy (UPLC) coupled with a Sciex API 5000™ triple quadrupole mass spectrometer. Data was acquired and analyzed by Analyst® MS software.
Media was harvested semi-weekly (84 hrs).

estrogen receptor (ER) = target: T1, estrogen receptor (ER) (Homo sapiens, UniProt P03372); experiment: Western blot for ER and PR expression in MCF7 cells; format: cell-based
T1 sequence (P03372 1-595): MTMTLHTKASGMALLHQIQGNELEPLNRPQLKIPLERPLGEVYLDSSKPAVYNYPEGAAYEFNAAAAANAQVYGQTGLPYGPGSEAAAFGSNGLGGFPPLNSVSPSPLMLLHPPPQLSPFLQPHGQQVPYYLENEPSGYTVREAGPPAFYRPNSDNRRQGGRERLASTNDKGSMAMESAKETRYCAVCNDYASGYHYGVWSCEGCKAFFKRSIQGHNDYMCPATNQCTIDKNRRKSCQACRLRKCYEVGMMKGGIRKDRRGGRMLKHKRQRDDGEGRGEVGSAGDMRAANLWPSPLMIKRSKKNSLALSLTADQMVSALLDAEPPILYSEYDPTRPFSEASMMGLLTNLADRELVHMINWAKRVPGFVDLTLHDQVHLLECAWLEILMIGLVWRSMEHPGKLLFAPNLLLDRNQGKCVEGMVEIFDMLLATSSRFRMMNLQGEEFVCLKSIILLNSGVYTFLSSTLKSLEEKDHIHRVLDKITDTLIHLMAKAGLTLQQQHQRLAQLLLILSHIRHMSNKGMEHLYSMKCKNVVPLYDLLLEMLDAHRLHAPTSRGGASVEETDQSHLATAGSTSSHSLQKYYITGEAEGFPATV
Experimental: as §1
(§3) MCF-7 culture were propagated and seeded in 6 cm dishes at 300,000 cells per dish and allowed to adhere overnight as a monolayer. […] The drug concentrations and biological effects of the drug eluted from specific tubes were evaluated by Mass spectroscopy, Western Blot analysis and antiproliferative methods after exposure for 3 days.
(§4) The medium was then used to culture MCF7 cells for 72 h, and the cells were assayed for proliferation by MTS assay (Panel A) and harvested for protein and western blotted for ER and PR expression (Panel B).

[2] = Drug release from loaded Silastic tubing in saline (LC-MS/MS); format: physicochemical
Experimental: Every 84 hours the saline was collected and replaced with fresh saline.
as §2
Every 84 hours, saline was collected and replaced with fresh saline. Fulvestrant was quantified in collected saline by liquid chromatography mass spectrometry.

[3] = in 10% ethanol, 10% benzyl alcohol, 15% benzyl benzoate, and to 100% with castor oil (Faslodex®); cited from earlier work
[4] = distribution coefficient between water and octanol; cited from earlier work
[5] = system: MCF7 ER-positive breast cancer cells; experiment: MTS viability/proliferation assay of MCF7 cells; format: cell-based
Experimental: as §1, §3
At the end of the exposure, medium was replaced by MTS dye diluted (200 μL per well) in culture medium and incubated for up to 2 hours at 37° C. Optical density (490 nm) at the end of the time points (1, 1.5 and 2 hours) was measure and plotted as a ratio of absorbance (day/untreated).
Media containing tubing released drug at respective times was then added to cultured MCF7 ER-positive breast cancer cells and grown for 72 hours.
as §4

[6] = Fulvestrant level in blood and mammary tissue of mice with Silastic implant; format: in vivo, CD-1 female mice; settings: 2 cm RX50 silastic tubing, 0.076 mg/cm dry fulvestrant, adjacent to inguinal mammary fat pad
Experimental: (§5) Mice were monitored for body weight loss, activity, adequate grooming, and general behavior daily for the first week, followed by alternate days up to […]. Mice were euthanized and blood and organs were collected after 1, 2, 3, 4, 6 and 9 weeks (FIGS. 21 and 22).
Blood from anaesthetized CD-1 female mice were collected in Vacutainer® tubes coated with K2 ethylenediaminetetraacetic acid (EDTA) via cardiac puncture. Plasma was separated by centrifugation at 6,000×g for 10 minutes and stored at −80° C. […] Harvested tissue was homogenized in saline on ice and then subjected to liquid-liquid phase extraction and evaluated for their levels of fulvestrant by LC-MS/MS as described above.
After the indicated number of weeks the mice were euthanized and tissue was harvested.

[7] = Visual examination of organs for overt pathology in implanted mice; format: in vivo, CD-1 female mice; settings: Silastic depot with dry fulvestrant implanted subcutaneously, 9 week period
Text: as §5

[8] = system: progesterone receptor (PgR) mRNA; experiment: Progesterone receptor mRNA by qRT-PCR in MCF7 cells treated with medium containing released E2; format: cell-based; settings: estradiol released from Silastic tubing into culture medium, MCF7 cells treated 24 hours
Experimental: The effect of estradiol released from Silastic® tubing loaded with estradiol and placed in culture medium was monitored, using conditions similar to that described in Example 2.
FIG. 23: Drug (E2) was loaded into 3 independent silastic tubes, dried, and sealed before incubating them in tissue culture medium for the indicated number of days. The tubes were then removed and MCF7 cells were treated with the medium. For the E2 experiment, MCF7 cells were first depleted of E2 by growing for 48 hours in FBS stripped media. Then, after 24 hours of treatment with media containing released E2, cells were harvested and progesterone receptor mRNA was quantified by quantitative real-time (qRT)-polymerase chain reaction (PCR) using TaqMan® probes from Applied Biosystems. As controls, MCF7 cells untreated and treated directly with 10 nM E2 were run.

[9] = MCF7 cells treated directly with 100 nM fulvestrant (positive control)

drug transfer from Silastic tubing [1]: amenable to drug transfer
Compound: 4-hydroxytamoxifen

duration of consistent weekly fulvestrant release, as measured by ER and PR down regulation (estrogen receptor (ER); weekly release from Silastic tubing, cell culture models): more than 4 weeks | extrapolated duration of release ([2]; based on rate of release and amount of fulvestrant in the device): exceeds 10 years | duration of steady release ([2]; saline, 37 C): exceeding 7 months | rate of fulvestrant released ([2]; saline, 37 C, after 5 weeks, average): 7.77 ng/cm tubing*day | duration of sustained release into culture medium ([1]; fulvestrant loaded Silastic tubing, media harvested semi-weekly (84 hrs), LC-MS/MS): up to 22 weeks | fulvestrant in mammary tissue ([6]; all mice): significant fulvestrant was detectable | fulvestrant in blood ([6]; weeks 1-9, all but one mouse at week 4): < 4 nM | overt pathology of organs (color, size, general condition) [7]: none
Compound: C[C@]12CC[C@@H]3c4ccc(O)cc4C[C@@H](CCCCCCCCC[S+]([O-])CCCC(F)(F)C(F)(F)F)[C@H]3[C@@H]1CC[C@@H]2O (stereo partly shown) [fulvestrant]
ER expression (estrogen receptor (ER); [9]): sufficient to down regulate ER expression | solubility [3]: up to 50 mg/mL | log D [4]: around 8.47 | cell growth [5, 9]: arrest cell growth | tube equilibration time sufficient for growth inhibition and ER down regulation comparable to 100 nM fulvestrant ([5]; Silastic tubing 9 cm, 0.076 mg/cm dry fulvestrant, in culture media): 2 to 5 days | antiproliferative effects ([5]; fulvestrant added directly, concentration curves 10-50 nM and up to 10 μM, 72 hours): sufficient to block estrogen receptor signaling and proliferation | growth inhibition and estrogen receptor down regulation ([5]; medium with fulvestrant released from Silastic tubing (0.076 mg/cm dry fulvestrant), MCF7 cells 72 h): comparable to cells directly treated with fulvestrant (100 nM); also recorded: sufficient to abrogate ER signaling and reduce cell proliferation

drug transfer from Silastic tubing [1]: amenable to drug transfer
Compound: O=C(c1ccc(OCCN2CCCCC2)cc1)c1c(-c2ccc(O)cc2)sc2cc(O)ccc12 [raloxifene]
log D [4]: around 5.406

Compound: C[C@]12CC[C@@H]3c4ccc(O)cc4CC[C@H]3[C@@H]1CC[C@@H]2O [estradiol]
duration of sustained increase in progesterone receptor (PgR) mRNA expression [8]: up to 15 days
